Where “and” joins values, the source holds several entries; their conditions need not be identical. Equal values may be shown once.
Experiments:
[1] = system: KMO activity in the striatum; assay: De novo 3-HK synthesis after intrastriatal [5-3H]-kynurenine; type: in vivo, Sprague–Dawley rats
[2] = target: T1, PfKMO (Pseudomonas fluorescens, UniProt Q84HF5, C252S/C461S); assay: Stopped-flow reduction of flavin cofactor by NADPH; type: biochemical
T1 construct: made in house; host or cells: E. coli BL21 (DE3)
Experimental: The reduction rate of the flavin cofactor by NADPH was measured using a stopped-flow spectrophotometer (Applied Photophysics Ltd), which was housed in an anaerobic glovebox (Belle Technology). […] The reduction of the flavin was monitored by the decrease in the absorbance of the flavin at 450 nm and transients were fitted to either double or triple exponentials.
Supplementary Figure 13. Reduction of flavin cofactor by NADPH in the presence and absence of ligands. Anaerobic mixtures of 10 µM PfKMO with or without ligand were mixed against anaerobic 2 mM NADPH on a stopped-flow spectrophotometer at 25℃. a, 10 µM PfKMO mixed with 2 mM NADPH; b, 10 µM

[3] = target: T1, PfKMO; assay: biochemical
Experimental: saturating concentrations of the L-KYN and NADPH substrates. Data are plotted […]
(§1) consumption of NADPH at 340 nm upon addition of enzyme via a Cary 50 UV-Vis spectrophotometer (Agilent Technologies). Rates were determined from linear regression fits to the initial linear portion of the curves. All measurements were performed in triplicate. The IC50 values for inhibitors were obtained by plotting the percentage inhibition versus the inhibitor concentration and fitting to the Morrison equation16 (equation 1) using Origin 9.0 Software (OriginLab, Northampton, MA).
E + I + K!"" − E + I + K!"" ! − 4[E][I] where v0 is the enzyme activity without inhibitor, vi is the enzyme activity with ligand concentration [I], [E] is the enzyme concentration, [I] is the inhibitor concentration, K!"" is the apparent inhibition constant and IC = K!"" + [!] . If K!"" ≫ [!], IC ≈ […]
where Ki is the inhibition constant, [S] is the substrate concentration used in the assay and Km is the Michaelis-Menten constant17. […]
between Ki and Ki apparent values, as the conditions for measuring IC50 are different, Ki values can be used to compare with other reported KMO inhibitors.
Steady-state kinetic parameters for PfKMO were calculated by measuring initial rates […]
the observed rate of turnover (v) versus the varied substrate concentration were fitted to equation 2 using Origin 9.0 Software (OriginLab, Northampton, MA).
A B + K!! B + K!! A + K!!K!! where v is the initial rate of activity, Vmax is the maximum velocitie of the reaction, [A] and [B] are the substrate concentration, K!! and K!! are the Michaelis-Menten constant for different substrate and K!! is the inhibition (binding) constant of substrate A to the free enzyme while forming transitory complexes.18
Product inhibition studies were carried out by measuring reaction rates at varying […]
one substrate and varying concentrations of the other substrate. Inhibition studies with target compounds were carried out by measuring reaction rates at varying inhibitor concentrations at saturating concentrations of one substrate and varying concentrations of the other substrate. […]
were used to distinguish between different types of inhibition. The data were fitted to a straight line defined by the Lineweaver-Burke equation (equation 4), with the y intercept providing 1/Vmax and the x intercept giving -1/Km. […]

[4] = target: T2, Pseudomonas fluorescens KMO (PfKMO) (Pseudomonas fluorescens, UniProt Q84HF5, C252S/C461S); assay: biochemical
T2 construct: made in house; host or cells: E. coli BL21 (DE3)
Description: (§2) A combination of ligand- and structural-based virtual screening approaches (see supporting information for details) was used to identify an initial library of >1000 compounds that may be suitable as potential KMO inhibitors. These compounds were screened for inhibition of Pseudomonas fluorescens KMO (PfKMO) and Homo sapiens KMO (HsKMO) using high-throughput assays by monitoring the time-dependent oxidation of NADPH at 340 nm[23].
(§3) Small-molecule compounds were supplied by Biofocus (Charles River Laboratories International Inc., MA, USA), which were identified in silico as potential inhibitors (further details are described in the Supplementary Methods). Initial inhibition assays were performed against Pseudomonas fluorescens KMO (PfKMO) and Homo sapiens KMO (HsKMO) by monitoring the time-dependent absorbance change of NADPH at 340 nm. Purified KMO protein (200 nM) was incubated in 100 µL reaction buffer (20 mM potassium phosphate pH 8.0, 7 mM 2-mercaptoethanol) containing 100 μM NADPH, 100 μM L-Kyn and 20 μM potential inhibitors in 96-well plates. […] The inhibitors identified in the initial screens were validated and re-assayed individually in a 1 cm path-length quartz micro cuvette. […] Suppliers for target inhibitor compounds are listed in Supplementary Table 11.
(§4) Supplementary Figure 1. Examples of inhibition data used to generate IC50 values for selected KMO inhibitors. Fixed concentration of L -KYN (200 µM) and NADPH (100µM) were added into reaction buffer (HsKMO: 20mM potassium phosphate pH 8.0, 7 mM 2-mercaptoethanol; PfKMO: 20 mM HEPES, 10mM sodium acetate, pH 7.5, 2mM DTT). The reaction was initiated by the addition of KMO enzyme (HsKMO: 0.5µM; PfKMO: 0.1 µM). KMO activity was measured in the presence of a range of inhibitor concentrations. […]
(§5) 3.5 Steady-state enzymatic assays.
(§6) Initial screening assays and determination of IC50 values for each potential inhibitor compound were carried out using either 0.1 µM PfKMO or 0.5 µM HsKMO at fixed […]
(§7) (HsKMO: 20 mM potassium phosphate pH 8.0, 7 mM 2-mercaptoethanol; PfKMO:
(§8) 20 mM HEPES, 10 mM sodium acetate, pH 7.5, 2 mM DTT). KMO activity was measured in the presence of a range of inhibitor concentrations by monitoring the […]
as §1, with “MA). […]” for “MA).”

[5] = target: T3, Homo sapiens KMO (HsKMO) (Homo sapiens, UniProt O15229); assay: KMO inhibition assay, NADPH oxidation at 340 nm (HsKMO); type: biochemical
T3 construct: GST; made in house
Description: as §2, §3
Supplementary Figure 1. Examples of inhibition data used to generate IC50 values for selected KMO inhibitors.
as §4, with “NADPH” for “Supplementary Figure 1. Examples of inhibition data used to generate IC50 values for selected KMO inhibitors. Fixed concentration of L -KYN (200 µM) and NADPH”
as §5, §6, §7, §8, §1
E + I + K!"" − E + I + K!"" ! − 4[E][I] where v0 is the enzyme activity without inhibitor, vi is the enzyme activity with ligand

T1 sequence (Q84HF5 whole entry C252S/C461S): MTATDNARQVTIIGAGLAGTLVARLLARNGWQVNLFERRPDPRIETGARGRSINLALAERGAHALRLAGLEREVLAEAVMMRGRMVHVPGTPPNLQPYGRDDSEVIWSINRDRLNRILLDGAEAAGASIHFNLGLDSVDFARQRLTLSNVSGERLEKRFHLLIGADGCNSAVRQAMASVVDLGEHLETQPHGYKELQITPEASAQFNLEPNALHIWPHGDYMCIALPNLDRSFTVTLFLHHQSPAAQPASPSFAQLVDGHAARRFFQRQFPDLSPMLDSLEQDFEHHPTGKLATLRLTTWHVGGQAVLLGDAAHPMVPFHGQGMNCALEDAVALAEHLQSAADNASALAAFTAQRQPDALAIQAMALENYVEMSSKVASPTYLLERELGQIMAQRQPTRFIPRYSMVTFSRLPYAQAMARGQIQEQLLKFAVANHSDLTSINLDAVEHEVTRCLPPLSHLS
T3 sequence (O15229 whole entry): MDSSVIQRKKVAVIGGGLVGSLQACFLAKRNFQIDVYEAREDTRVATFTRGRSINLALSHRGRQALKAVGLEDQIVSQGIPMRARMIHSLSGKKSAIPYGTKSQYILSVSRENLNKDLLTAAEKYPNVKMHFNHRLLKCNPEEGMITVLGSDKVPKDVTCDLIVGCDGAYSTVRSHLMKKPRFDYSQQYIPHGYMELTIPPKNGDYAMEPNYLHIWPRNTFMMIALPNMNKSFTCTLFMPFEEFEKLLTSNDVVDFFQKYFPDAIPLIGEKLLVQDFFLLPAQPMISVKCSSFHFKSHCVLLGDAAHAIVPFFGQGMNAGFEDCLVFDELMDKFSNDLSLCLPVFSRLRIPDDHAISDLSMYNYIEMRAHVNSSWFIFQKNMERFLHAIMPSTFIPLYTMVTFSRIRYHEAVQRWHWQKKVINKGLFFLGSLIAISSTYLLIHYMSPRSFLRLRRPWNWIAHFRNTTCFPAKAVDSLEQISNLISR
T2 sequence (Q84HF5 whole entry C252S/C461S): as the sequence (Q84HF5 whole entry C252S/C461S) above

| SMILES | Reduction of [3H]-3-HK ([1]; rat striatum, 50 mg/kg i.v., 1 h) | Percentage of [5-3H]-KYN that is metabolized into [3H]-3-HK ([1]; striatum of awake rats, 1 h after 50 mg/kg i.v., single rats) | Reduction rate of flavin cofactor ([2]; PfKMO with saturating ligand, 2 mM NADPH, 25 °C, anaerobic) | Stimulation of KMO reduction by NADPH ([2]; rapid mixing stopped-flow assays) | Ki [3] | Mechanism of inhibition with respect to L-KYN ([3]; PfKMO) | Mechanism of inhibition with respect to NADPH ([3]; PfKMO) | IC50 [4] | IC50 [5] |
| --- | --- | --- | --- | --- | --- | --- | --- | --- | --- |
| COc1ccc(S(=O)(=O)Nc2nc(-c3cccc([N+](=O)[O-])c3)cs2)cc1OC [Ro 61-8048] | no reduction | 2.76% and 5.1% and 4.48% and 5.65% and 2.31% and 2.1% | – | – | – | – | – | – | – |
| O=C(O)c1ccc(-c2ccc(Cl)c(Cl)c2)o1 [compound 13, 5-(3,4-dichlorophenyl) furan-2-carboxylic acid] | – | – | 0.06 ± 0.002 s⁻¹ | do not stimulate | 20 ± 1 nM | competitive inhibitor | mixed type inhibitors | 400 ± 20 nM | 63100 nM |
